According to patent US9957236B2, “Selective inhibitors interfering with fibroblast growth factor receptor and FRS2 interaction for the prevention and treatment of cancer and other diseases” (LIMITED LIABILITY COMPANY “RUSSIAN PHARMACEUTICAL …, priority 2014, dated 2018):
pIC50: −log10 of the molar value. One block for each molecule: values may come before it.

Columns and labels:
[1] = target: T1, FRS2 (Homo sapiens, UniProt Q8WU20); assay: FRS2 phosphorylation in FGF-2-stimulated Snu16 cells (Western blotting); type: cell-based; set-up: endogenous in cells; host or cells: Snu16; settings: FGF-2 stimulation
T1 sequence (Q8WU20 1-508): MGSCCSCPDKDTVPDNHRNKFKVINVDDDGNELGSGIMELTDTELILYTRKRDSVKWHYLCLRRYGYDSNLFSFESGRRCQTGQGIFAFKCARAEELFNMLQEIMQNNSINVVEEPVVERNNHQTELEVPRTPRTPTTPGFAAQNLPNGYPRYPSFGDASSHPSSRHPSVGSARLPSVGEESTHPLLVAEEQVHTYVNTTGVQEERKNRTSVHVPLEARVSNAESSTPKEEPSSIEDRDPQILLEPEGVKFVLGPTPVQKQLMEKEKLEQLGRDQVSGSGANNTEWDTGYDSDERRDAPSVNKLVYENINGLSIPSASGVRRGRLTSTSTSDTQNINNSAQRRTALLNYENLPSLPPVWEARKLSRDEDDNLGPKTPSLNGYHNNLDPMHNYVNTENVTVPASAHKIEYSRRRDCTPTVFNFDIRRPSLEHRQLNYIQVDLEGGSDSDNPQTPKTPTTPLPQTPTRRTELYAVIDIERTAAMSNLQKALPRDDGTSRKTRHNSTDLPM
Method: By way of chemical synthesis we received the specified compounds. Stomach cancer cells Snu16 expressing FGFR2 were cultivated according to the standard method. A part of the cells was left for negative control, FGF-2 was added to the other part (positive control). Therapeutic groups included: addition of the inhibitor according to formula V and subsequent stimulation of FGF-2, addition of the inhibitor according to formula IX and subsequent stimulation of FGF-2, addition of the inhibitor according to formula XI and subsequent stimulation of FGF-2. The Western-blotting method was used for assessment of the phosphorylation level of various kinases.

[2] = tested on: HUVEC; assay: Proliferation of endothelial cells HUVEC with FGF-2; type: cell-based; settings: Homo sapiens, FGF-2 25 ng/ml, 96 hours, read-out: Cell growth suppression, IC50
Method: Endothelial cells HUVEC were sawn in 96-cavity plates and cultivate for 24 hours. After that, the following was added to the cells: • 1) inhibitor RPT835, or • 2) inhibitor described by Formula IX in this invention, or • 3) brivanib—multi-kinase inhibitor of FGFR/VEGFR, and also to all cells—FGF-2 in a concentration of 25 ng/ml.
The cells were cultivated for 96 hours in general and then were calculated.

[3] = tested on: PI3K; assay: Western blotting of PI3K phosphorylation in HUVEC, Caki-1, KATO III cells; type: cell-based; settings: P=0.017
Method: (§1) According to the procedure described above, the phosphorylation levels of type 1-3 fibroblast growth factor receptors, FRS2, and also phosphorylation levels of VEGFR1 and intracellular kinases PI3K, p44/42(MAPK), Akt, mTOR were analyzed by the Western-blotting method.
(§2) Endothelial cells HUVEC, human renal cell carcinoma of Caki-1 type, stomach cancer cells KATO III were used in the research. All the mentioned cells expressed various types of the mentioned receptors. Just like in Example 5, a part of the cells stimulated FGF-2 and/or VEGF-A, a part of the cells was cultivated with the inhibitor described by Formula VIII, a part of the cells left without stimulation and treatment.

[4] = target: FGFR2 (Homo sapiens, UniProt P21802); assay: Western blotting of FGFR2 phosphorylation in HUVEC, Caki-1, KATO III cells; type: cell-based
Method: as §1, §2

[5] = target: T2, FGFR3 (Homo sapiens, UniProt P22607); assay: Western blotting of FGFR3 phosphorylation in HUVEC, Caki-1, KATO III cells; type: cell-based
T2 construct: endogenous in cells; host or cells: HUVEC, Caki-1, KATO III
Method: as §1, §2

[6] = target: T3, VEGFR1 (Homo sapiens, UniProt P17948); assay: Western blotting of VEGFR1 phosphorylation in HUVEC, Caki-1, KATO III cells; type: cell-based
T3 construct: endogenous in cells; host or cells: HUVEC, Caki-1, KATO III
Method: as §1, §2

[7] = target: T4, FGFR1 (Homo sapiens, UniProt P11362); assay: Western blotting of FGFR1 phosphorylation in HUVEC, Caki-1, KATO III cells; type: cell-based
T4 construct: endogenous in cells; host or cells: HUVEC, Caki-1, KATO III
Method: as §1, §2

[8] = tested on: p44/42(MAPK), Akt, mTOR; assay: Western blotting of other kinases in HUVEC, Caki-1, KATO III cells; type: cell-based
Method: as §1, §2

[9] = target: T1, FRS2; assay: Western blotting of FRS2 phosphorylation in HUVEC, Caki-1, KATO III cells; type: cell-based; set-up: endogenous in cells; settings: P=0.001
Method: as §1, §2

[10] = tested on: collagen-induced arthritis; assay: Collagen-induced arthritis model; type: in vivo; settings: mice, 100 mg/kg through a tube for 40 days
Method: Collagen-induced arthritis model was used in the research. Arthritic was induced in mice by intradermal injections of collagen of the II type combined with Freund's adjuvant. The mice were randomized into 2 groups of 5 animals in each one: • group 1: control, water through a tube for 40 days. • group 2: inhibitor described by formula III in this invention, 100 mg/kg, through a tube for 40 days. On the 40 day, the mice were subjected to euthanasia, the tissue was studied.

[11] = tested on: FGFR2; assay: Automated Western blotting of FGFR2 phosphorylation in Snu16 cells; type: cell-based; settings: 100 mcg/ml, FGF-2 stimulation
Method: (§3) Stomach cancer cells Snu16 were sawn in 96-cavity plates with a size of 90 mcl/cavity. After 24 hours of incubation in a damped incubator at a temperature of 37 C, 5% CO2 and 95% air to cells were the tested dissolved agent described by formula VI in the volume of 100 mcg/ml, and then FGF-2 was added as a stimulator.
(§4) After the days of cultivation by the method of automated Western-blotting, the phosphorylation level of the following proteins: FGFR2, FRS2α, FRS2β, Shp2, Grb2 was studied in the cells. After another 24 hours of the cultivation, the cells were counted.

[12] = tested on: FRS2α and FRS2β; assay: Automated Western blotting of FRS2α and FRS2β phosphorylation in Snu16 cells; type: cell-based; settings: FGF-2 stimulation
Method: as §3, §4

[13] = tested on: Shp2 and Grb2; assay: Automated Western blotting of Shp2 and Grb2 phosphorylation in Snu16 cells; type: cell-based; settings: noted in some cells
Method: as §3, §4

[14] = tested on: Snu16 cells; assay: Proliferation of stomach cancer cells Snu16 (cell count); type: cell-based
Method: as §3, §4
After the next cultivation the number of the cells equaled between the groups, and also with the control (stimulation of FGF-2, without cultivation with the inhibitor). See the results in Table 1.

[15] = tested on: angiogenesis stimulated by bFGF; assay: Matrigel implant angiogenesis stimulated by bFGF; type: in vivo, mice; settings: Matrigel implants in mice; intraperitoneally day 0, 3, 6; RPT835 15 mg/kg, Bevacizumab 10 mg/kg
Method: (§5) Eighteen hybrid mice of the 1 generation F1 (C57B1/6×DBA/2), males with a weight of 22-30 g are used in the research. The mice (nomenclature number M02.13.00011) were received from a branch of nursery “Stolbovaya”. The method described earlier was used in the experiment [Passaniti A., 1992]. The control and experiment groups had at least 3 mice. Aliquots (1,000 mcl) of Matrigel (BD Biosciences) containing heparin 60 conventional units/ml, VEGF (200 ng/ml, BD Biosciences) or bFGF (100 ng/ml, BD Biosciences) were prepared on ice. Matrigel containing heparin 60 conventional units/ml was used as negative control. Matrigel was injected in the mice subcutaneously into the side part of the back. After injection, Matrigel quickly forms single, hard gel-like implant. A weight of the inhibitor was dissolved in DMSO to concentration of 10^−2M. Aliquots were frozen down to −20° C. and unfrozen immediately before injection. Refreezing of the solution was not allowed. The tested and standard objects were administered intraperitoneally on the 0, 3 and 6 day of Matrigel impintation: Bevacizumab in a dose of 10 mg/kg and RPT835-15 mg/kg. Seven days after administration of Matrigel, the mice were put into sleep with diethyl ether to remove the implant. The implants were fixed for 24-36 hours in 10% neutral formalin and enclosed in paraffin for further histological research.

[16] = tested on: angiogenesis in the implants containing VEGF; assay: Matrigel implant angiogenesis stimulated by VEGF; type: in vivo; settings: Matrigel implants in mice; 10 mg/kg intraperitoneally day 0, 3, 6; p<0.001
Method: as §5

Chain of FGFR2 (Homo sapiens, UniProt P21802) (P21802 22-821, species assumed): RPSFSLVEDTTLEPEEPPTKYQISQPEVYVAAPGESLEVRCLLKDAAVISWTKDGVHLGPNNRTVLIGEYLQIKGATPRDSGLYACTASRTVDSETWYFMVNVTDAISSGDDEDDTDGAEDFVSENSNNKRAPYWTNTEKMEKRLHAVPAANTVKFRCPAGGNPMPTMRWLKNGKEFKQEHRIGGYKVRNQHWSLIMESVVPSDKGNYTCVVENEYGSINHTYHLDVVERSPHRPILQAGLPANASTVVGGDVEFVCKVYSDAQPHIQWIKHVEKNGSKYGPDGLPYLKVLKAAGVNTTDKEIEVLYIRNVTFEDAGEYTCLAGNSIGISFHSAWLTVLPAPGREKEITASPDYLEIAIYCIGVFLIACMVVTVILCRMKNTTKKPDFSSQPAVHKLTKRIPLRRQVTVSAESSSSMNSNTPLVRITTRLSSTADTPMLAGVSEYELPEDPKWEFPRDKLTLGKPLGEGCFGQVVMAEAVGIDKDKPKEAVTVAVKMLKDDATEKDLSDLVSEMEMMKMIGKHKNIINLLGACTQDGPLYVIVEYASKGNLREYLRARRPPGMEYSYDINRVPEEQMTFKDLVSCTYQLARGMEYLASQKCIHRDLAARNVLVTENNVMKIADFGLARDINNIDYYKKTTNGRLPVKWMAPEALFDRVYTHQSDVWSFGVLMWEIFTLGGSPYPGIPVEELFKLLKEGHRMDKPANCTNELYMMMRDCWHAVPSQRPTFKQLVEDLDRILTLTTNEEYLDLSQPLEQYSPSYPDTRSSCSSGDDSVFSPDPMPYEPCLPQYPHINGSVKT
T2 sequence (P22607 23-806): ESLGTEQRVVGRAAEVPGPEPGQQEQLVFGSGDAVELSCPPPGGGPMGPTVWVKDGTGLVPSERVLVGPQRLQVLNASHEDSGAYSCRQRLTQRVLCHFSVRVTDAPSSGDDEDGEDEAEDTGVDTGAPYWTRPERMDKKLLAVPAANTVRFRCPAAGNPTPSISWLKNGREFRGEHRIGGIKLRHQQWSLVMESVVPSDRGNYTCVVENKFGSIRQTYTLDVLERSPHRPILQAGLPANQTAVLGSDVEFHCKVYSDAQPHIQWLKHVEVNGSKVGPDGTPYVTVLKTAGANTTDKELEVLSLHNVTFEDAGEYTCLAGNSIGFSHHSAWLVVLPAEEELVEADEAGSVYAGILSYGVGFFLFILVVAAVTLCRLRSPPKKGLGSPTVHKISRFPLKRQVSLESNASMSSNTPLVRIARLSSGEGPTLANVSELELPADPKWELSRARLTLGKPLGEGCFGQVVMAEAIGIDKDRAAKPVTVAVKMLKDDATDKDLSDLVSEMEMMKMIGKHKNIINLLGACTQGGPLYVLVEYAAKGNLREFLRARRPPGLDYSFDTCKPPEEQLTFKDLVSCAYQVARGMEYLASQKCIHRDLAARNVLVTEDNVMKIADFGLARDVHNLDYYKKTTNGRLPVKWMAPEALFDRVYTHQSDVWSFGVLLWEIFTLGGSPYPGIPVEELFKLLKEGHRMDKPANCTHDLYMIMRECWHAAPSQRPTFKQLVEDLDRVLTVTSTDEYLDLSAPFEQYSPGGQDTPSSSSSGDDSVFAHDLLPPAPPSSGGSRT
T3 sequence (P17948 27-1338): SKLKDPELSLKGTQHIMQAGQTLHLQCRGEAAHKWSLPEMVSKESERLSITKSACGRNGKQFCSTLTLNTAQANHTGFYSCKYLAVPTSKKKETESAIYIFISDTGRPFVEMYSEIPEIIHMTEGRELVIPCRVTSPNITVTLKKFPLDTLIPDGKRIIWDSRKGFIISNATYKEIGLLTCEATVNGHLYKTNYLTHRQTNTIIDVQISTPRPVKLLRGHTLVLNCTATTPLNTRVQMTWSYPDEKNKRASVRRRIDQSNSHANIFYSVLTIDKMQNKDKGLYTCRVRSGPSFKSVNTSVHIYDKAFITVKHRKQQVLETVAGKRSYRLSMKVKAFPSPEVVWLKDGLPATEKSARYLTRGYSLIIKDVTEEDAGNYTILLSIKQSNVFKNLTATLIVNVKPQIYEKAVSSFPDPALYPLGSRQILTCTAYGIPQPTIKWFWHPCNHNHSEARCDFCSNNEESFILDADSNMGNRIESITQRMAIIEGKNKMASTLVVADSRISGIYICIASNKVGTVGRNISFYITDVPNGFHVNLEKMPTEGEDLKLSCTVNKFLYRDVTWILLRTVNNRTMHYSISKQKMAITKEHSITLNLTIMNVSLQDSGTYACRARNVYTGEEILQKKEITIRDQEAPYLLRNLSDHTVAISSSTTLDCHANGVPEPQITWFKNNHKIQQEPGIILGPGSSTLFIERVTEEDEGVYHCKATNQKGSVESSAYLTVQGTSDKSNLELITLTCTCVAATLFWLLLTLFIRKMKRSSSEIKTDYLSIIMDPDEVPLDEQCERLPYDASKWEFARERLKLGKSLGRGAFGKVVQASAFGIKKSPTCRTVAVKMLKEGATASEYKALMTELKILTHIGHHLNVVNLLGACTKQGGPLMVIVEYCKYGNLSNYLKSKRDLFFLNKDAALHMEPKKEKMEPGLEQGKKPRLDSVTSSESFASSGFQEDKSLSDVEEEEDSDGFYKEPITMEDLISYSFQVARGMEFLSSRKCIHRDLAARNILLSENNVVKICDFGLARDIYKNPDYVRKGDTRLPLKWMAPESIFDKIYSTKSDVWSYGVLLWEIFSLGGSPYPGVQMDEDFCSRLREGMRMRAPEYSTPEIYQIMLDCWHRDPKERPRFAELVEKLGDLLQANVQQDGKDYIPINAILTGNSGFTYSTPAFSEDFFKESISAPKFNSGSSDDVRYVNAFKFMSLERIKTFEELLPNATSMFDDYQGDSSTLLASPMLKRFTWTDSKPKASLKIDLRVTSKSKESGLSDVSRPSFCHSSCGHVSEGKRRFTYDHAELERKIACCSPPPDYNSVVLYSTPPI
T4 sequence (P11362 22-822): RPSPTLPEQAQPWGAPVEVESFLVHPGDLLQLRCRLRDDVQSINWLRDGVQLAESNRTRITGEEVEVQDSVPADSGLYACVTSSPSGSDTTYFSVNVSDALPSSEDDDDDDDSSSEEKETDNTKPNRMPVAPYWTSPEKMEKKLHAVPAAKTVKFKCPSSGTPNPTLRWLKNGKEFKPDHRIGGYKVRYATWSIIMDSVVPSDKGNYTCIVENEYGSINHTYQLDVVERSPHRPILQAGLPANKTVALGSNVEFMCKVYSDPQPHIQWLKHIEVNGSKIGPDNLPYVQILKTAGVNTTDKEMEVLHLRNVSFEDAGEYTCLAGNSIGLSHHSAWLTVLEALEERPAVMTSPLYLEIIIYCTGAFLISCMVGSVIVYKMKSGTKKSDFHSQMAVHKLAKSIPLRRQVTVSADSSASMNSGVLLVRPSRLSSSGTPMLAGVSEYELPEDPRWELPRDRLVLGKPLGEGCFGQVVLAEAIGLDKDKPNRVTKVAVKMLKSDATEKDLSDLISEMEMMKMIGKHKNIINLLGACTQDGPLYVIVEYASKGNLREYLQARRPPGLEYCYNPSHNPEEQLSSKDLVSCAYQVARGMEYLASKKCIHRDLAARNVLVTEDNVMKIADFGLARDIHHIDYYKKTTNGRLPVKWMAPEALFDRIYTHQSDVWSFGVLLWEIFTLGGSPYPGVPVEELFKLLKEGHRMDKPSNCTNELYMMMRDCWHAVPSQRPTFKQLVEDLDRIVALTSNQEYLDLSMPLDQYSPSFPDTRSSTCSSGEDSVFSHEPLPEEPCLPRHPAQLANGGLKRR

Molecule: O=C(O)c1cccc(Nc2cccc3ncccc23)c1 [Inhibitor XI, 3-(quinoline-5-ylamine)benzoic acid]
- transmission of the signal from FGFR to FRS2 [1]: interfere with transmission of the signal from FGFR to FRS2

Molecule: CC1C(=O)Nc2ccccc2N1C(=O)c1cccc(C(=O)O)c1 (stereo not drawn) [Inhibitor IX, 3-(2-methyl-3-oxo-1,2,3,4-tetrahydroquinoxalyne-1-carbonyl)benzoic acid]
- pIC50 [2]: 7.49
- transmission of the signal from FGFR to FRS2 [1]: interfere with transmission of the signal from FGFR to FRS2

- decrease of phosphorylation of FGFR2 (weakly) [4]: 1.5 times
- decrease of phosphorylation of FGFR3 (weakly) [5]: 1.8 times
- decrease of phosphorylation of VEGFR1 (weakly) [6]: 2.3 times
- level of FGFR1 phosphorylation [7]: even increased
- decrease of phosphorylation of FRS2 [9]: 14 times
Molecule: O=C1CN(C(=O)c2cccc(C(=O)O)c2)c2ccccc2N1 [Inhibitor VIII, 3-(3-oxo-1,2,3,4-tetrahydroquinoxaline-1-carbonyl)benzoic acid]
- decrease of phosphorylation of PI3K [3]: 10 times
- influence on other kinases [8]: did not have influence on other kinases

Molecule: Cc1cc2c(F)c(Oc3ncnn4cc(OC[C@@H](C)O)c(C)c34)ccc2[nH]1 [Brivanib, reference compound]
- pIC50 [2]: 6.54

Molecule: Cc1cc([N+](=O)[O-])c(NS(=O)(=O)c2cccc(C(=O)O)c2)cc1-c1cncnc1 [Inhibitor III, 3-(N-(4-methyl-2-nitro-5-(pyrimidin-5-yl)phenyl)sulfamoyl)benzoic acid]
- tissue findings (infiltration) [10]: Only insignificant infiltration with single neutrophils

- pIC50 [12]: > 8.00
Molecule: Cc1cc(NNc2cc(C)c(-c3cccnc3)cc2NS(=O)(=O)c2cccc(C(=O)O)c2)c(NS(=O)(=O)c2cccc(C(=O)O)c2)cc1-c1cccnc1 [Inhibitor VI]
- phosphorylation of FGFR2 [11]: did not suppress
- suppression of phosphorylation of FRS2α and FRS2β [12]: 12 times
- suppression of Shp2 and Grb2 protein phosphorylation [13]: more than 10 times
- proliferation compared with control group ([14]; group with phosphorylation suppression of FRS2 and Shp2 and/or Grb2, P < 0.0001): suppression,
- proliferation compared with control group ([14]; group with phosphorylation suppression of FRS2 and without influence on phosphorylation of Shp2 and/or Grb2, P < 0.0001): suppression,

Molecule: Bevacizumab: standard object blocking VEGF-stimulated angiogenesis, 10 mg/kg [reference compound]
- angiogenesis stimulated by bFGF [15]: but not angiogenesis induced by bFGF
- angiogenesis in the implants containing VEGF [16]: completely blocked

Molecule: Cc1cc(N)c(NS(=O)(=O)c2cccc(C(=O)O)c2)cc1-c1cncnc1 [Inhibitor V, 3-(N-(2-amino-4-methyl-5-(pyrimidin-5-yl)phenyl)sulfamoyl)benzoic acid]
- transmission of the signal from FGFR to FRS2 [1]: interfere with transmission of the signal from FGFR to FRS2
